# Source: US20240252650A1, “LIPID COMPOUNDS AND LIPID NANOPARTICLE COMPOSITIONS” (SUZHOU ABOGEN BIOSCIENCES CO., LTD., priority 2021, published 2024)
# What was measured:
# [1] = Lipid nanoparticle size and polydispersity by dynamic light scattering (Malvern Zetasizer Nano ZS); assay type: physicochemical; settings: LNP: cationic lipid/DSPC/cholesterol/PEG-lipid 50:10:38.5:1.5, mRNA; table of Example 15
# Method: (§1) Briefly, a cationic lipid provided herein, DSPC, cholesterol, and PEG-lipid were solubilized in ethanol at a molar ratio of 50:10:38.5:1.5, and mRNA were diluted in 10 to 50 mM citrate buffer, pH=4. The LNPs were prepared at a total lipid to mRNA weight ratio of approximately 10:1 to 30:1 by mixing the ethanolic lipid solution with the aqueous mRNA solution at a volume ratio of 1:3 using a microfluidic apparatus, total flow rate ranging from 9-30 mL/min. Ethanol were thereby removed and replaced by DPBS using dialysis. Finally, the lipid nanoparticles were filtered through a 0.2 μm sterile filter.
# (§2) Lipid nanoparticle size were determined by dynamic light scattering using a Malvern Zetasizer Nano ZS (Malvern UK) using a 173° backscatter detection mode. The encapsulation efficiency of lipid nanoparticles were determined using a Quant-it Ribogreen RNA quantification assay kit (Thermo Fisher Scientific, UK) according to the manufacturer's instructions.
# [2] = Apparent pKa of LNP formulations by TNS fluorescence assay; assay type: physicochemical; settings: LNP cationic lipid/DSPC/cholesterol/DMG-PEG 50/10/38.5/1.5 mol %, table of Example 15
# Method: As reported in literature, the apparent pKa of LNP formulations correlates with the delivery efficiency of LNPs for nucleic acids in vivo. The apparent pKa of each formulation was determined using an assay based on fluorescence of 2-(p-toluidino)-6-napthalene sulfonic acid (TNS). LNP formulations comprising of cationic lipid/DSPC/cholesterol/DMG-PEG (50/10/38.5/1.5 mol %) in PBS were prepared as described above. TNS was prepared as a 300 uM stock solution in distilled water. LNP formulations were diluted to 0.1 mg/ml total lipid in 3 mL of buffered solutions containing 50 mM sodium citrate, 50 mM sodium phosphate, 50 mM sodium borate, and 30 mM sodium chloride where the pH ranged from 3 to 9. An aliquot of the TNS solution was added to give a final concentration of 0.1 mg/ml and following vortex mixing fluorescence intensity was measured at room temperature in a Molecular Devices Spectramax iD3 spectrometer using excitation and mission wavelengths of 325 nm and 435 nm. A sigmoidal best fit analysis was applied to the fluorescence data and the pKa value was measured as the pH giving rise to half-maximal fluorescent intensity.
# [3] = Encapsulation efficiency of lipid nanoparticles (Quant-it Ribogreen RNA quantification assay); assay type: physicochemical; settings: LNP: cationic lipid/DSPC/cholesterol/PEG-lipid 50:10:38.5:1.5, mRNA; table of Example 15
# Method: as §1, §2
# female Balb/c mice = assay: Animal study: LNPs encapsulating luciferase mRNA, tail vein injection, organ bioluminescence imaging (IVIS Spectrum CT); assay type: in vivo; settings: luciferase mRNA LNP, 0.25 mg/kg tail vein; for bone marrow* Avg Radiance: bone marrow at 6 h; for brain* Avg Radiance: dissected brain at 6 h; for heart* Avg Radiance: dissected heart at 6 h; for kidney* Avg Radiance: dissected kidney at 6 h; for liver* Avg Radiance: dissected liver at 6 h; for lung* Avg Radiance: dissected lung at 6 h; for spleen* Avg Radiance: dissected spleen at 6 h
# Method: Lipid nanoparticles comprising certain compounds provided herein encapsulating luciferase encoding (luciferase) mRNA were systemically administered to 6-8 week old female Balb/c mice (Charles River Lab, ZheJiang) at 0.25 mg/kg dose by tail vein injection, and mice blood were sampled at specific time points (e.g., 6 hours) post administration. Optical imaging was performed using the IVIS Spectrum CT device (PerkinElmer Inc., Paris, France). The luminescence level was evaluated by an ROI applied to the injection site zone (Living Image software, PerkinElmer Inc., Paris, France).
# Radiance of heart, liver, spleen, lung, kidney, brain and bone marrow were taken at 6 h. Dissected organs were placed on a black sheet and imaged with IVIS Spectrum CT (PerkinElmer, Hopkinton, MA). To quantify bioluminescence emission signal, identical regions of interest (ROI) were positioned to encircle each organ region, the imaging signal was quantitated as average radiance (photons/s/cm2/steradian).
Structure (SMILES),polydispersity [1],size (nm) [1] [nm],Apparant Pka [2],Encapsulation Efficiency [3] [%],bone marrow* Avg Radiance (female Balb/c mice),brain* Avg Radiance (female Balb/c mice),heart* Avg Radiance (female Balb/c mice),kidney* Avg Radiance (female Balb/c mice),liver* Avg Radiance (female Balb/c mice),lung* Avg Radiance (female Balb/c mice),spleen* Avg Radiance (female Balb/c mice),luciferase expression in bone marrow (in words) (female Balb/c mice; 6 h)
CCCCC/C=C\C/C=C\CCCCCCCC(=O)OCC(COC(=O)CCC(OCCCCCCCC)OCCCCCCCC)COC(=O)OCCCN(CCO)C1CCC1 (centres unmarked) [Compound 115],0.033,71.59,6.499,91.21,−0.66 E+04 p/s/cm^2/sr,14.59 E+04 p/s/cm^2/sr,13.74 E+04 p/s/cm^2/sr,27.83 E+04 p/s/cm^2/sr,44.21 E+06 p/s/cm^2/sr,7.01 E+04 p/s/cm^2/sr,1.06 E+06 p/s/cm^2/sr,
CCCCC/C=C\C/C=C\CCCCCCCC(=O)OCC(COC(=O)CCCCN(CCCCCCCO)C1CCC1)COC(=O)CCCC(COC(=O)CCCCCCC)COC(=O)CCCCCCC (centres unmarked) [Compound 129],0.033,138.5,6.477,87.05,2.12 E+04 p/s/cm^2/sr,12.49 E+04 p/s/cm^2/sr,13.05 E+04 p/s/cm^2/sr,17.53 E+04 p/s/cm^2/sr,30.05 E+06 p/s/cm^2/sr,11 E+04 p/s/cm^2/sr,6.57 E+06 p/s/cm^2/sr,mild expression
